This note sets out measurements from US20240262826A1, “WILD TYPE KIT INHIBITORS” (Blueprint Medicines Corporation, priority 2022, published 2024).

What is called IC50 is the point on the concentration scale where inhibition reaches its midpoint. A high value points to lower potency.

The assay has as its target wild type c-kit (Homo sapiens (Human), UniProt P10721). The assay is described as follows: PathScan phospho c-kit (Tyr719) sandwich ELISA in SCF-stimulated M-07e cells (pKIT assay). The assay is classed as cell-based. The following applies: ELISA assay (values not marked *). The procedure, abridged: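 Tyr719-phosphorylated c-kit was measured by colorimetric (TMB) sandwich ELISA in lysates of M-07e cells. Cells were starved 4 h without serum or GM-CSF, dosed 60 min at 37 °C with compound (8 points, duplicate, 0.25% DMSO), and stimulated 10 min with human SCF (500 ng/mL as added). IC50 values came from 4-parameter logistic regression.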
In general terms: ELISA stands for enzyme-linked immunosorbent assay.

Sequence of wild type c-kit (P10721 26-976): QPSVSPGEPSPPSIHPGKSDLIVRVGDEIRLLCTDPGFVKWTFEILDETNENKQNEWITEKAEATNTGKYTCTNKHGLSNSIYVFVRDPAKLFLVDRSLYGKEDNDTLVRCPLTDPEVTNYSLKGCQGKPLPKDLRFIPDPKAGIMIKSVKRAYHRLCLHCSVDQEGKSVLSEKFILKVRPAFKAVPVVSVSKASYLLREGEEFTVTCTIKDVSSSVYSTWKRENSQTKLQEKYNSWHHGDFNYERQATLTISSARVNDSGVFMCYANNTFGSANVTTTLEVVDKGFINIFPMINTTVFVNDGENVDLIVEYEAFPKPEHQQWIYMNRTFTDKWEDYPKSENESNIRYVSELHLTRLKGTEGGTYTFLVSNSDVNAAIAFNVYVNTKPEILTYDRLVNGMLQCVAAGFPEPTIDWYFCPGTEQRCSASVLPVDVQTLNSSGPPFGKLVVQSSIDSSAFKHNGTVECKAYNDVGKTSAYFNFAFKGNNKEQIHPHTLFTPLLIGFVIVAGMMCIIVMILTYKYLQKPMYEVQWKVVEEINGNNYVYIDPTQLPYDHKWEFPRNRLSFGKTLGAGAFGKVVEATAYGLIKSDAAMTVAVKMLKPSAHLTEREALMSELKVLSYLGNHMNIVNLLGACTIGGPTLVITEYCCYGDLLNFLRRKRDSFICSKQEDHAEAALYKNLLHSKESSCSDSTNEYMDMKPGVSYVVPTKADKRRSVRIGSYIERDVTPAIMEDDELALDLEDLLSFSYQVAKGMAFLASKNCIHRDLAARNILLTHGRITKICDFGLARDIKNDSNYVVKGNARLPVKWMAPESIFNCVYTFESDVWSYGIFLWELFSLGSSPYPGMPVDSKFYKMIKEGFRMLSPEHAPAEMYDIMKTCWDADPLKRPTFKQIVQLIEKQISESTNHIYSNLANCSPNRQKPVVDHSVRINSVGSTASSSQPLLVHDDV

`CNc1ccn2ncc(C(=O)Nc3cc(-c4nnn(C5CN(C(=O)OC)C5)n4)ccc3C)c2c1` [Example 133, methyl 3-(5-(4-methyl-3-(5-(methylamino)pyrazolo[1,5-a]pyridine-3-carboxamido)phenyl)-2H-tetrazol-2-yl)azetidine-1-carboxylate] showed an IC50 of 34.5 nM. Under `Cc1cc(C)c(-c2nnn(CC34COC(C3)C4)n2)cc1NC(=O)c1cnn2ccccc12` [Example 20, N-(5-(2-((2-oxabicyclo[2.1.1]hexan-4-yl)methyl)-2H-tetrazol-5-yl)-2,4-dimethylphenyl)pyrazolo[1,5-a]pyridine-3-carboxamide] stands 50.9 nM; under `COCCNc1ccn2ncc(C(=O)Nc3cc(-c4nnn(C)n4)ccc3C)c2c1` [Example 87, 5-((2-methoxyethyl)amino)-N-(2-methyl-5-(2-methyl-2H-tetrazol-5-yl)phenyl)pyrazolo[1,5-a]pyridine-3-carboxamide], 34.5 nM. Under `Cc1ccc(-c2nnn(C3CN(CC(F)(F)F)C3)n2)cc1NC(=O)c1cnn2ccccc12` [Example 196, N-(2-methyl-5-(2-(1-(2,2,2-trifluoroethyl)azetidin-3-yl)-2H-tetrazol-5-yl)phenyl)pyrazolo[1,5-a]pyridine-3-carboxamide] stands 9.1 nM; under `COC(=O)N1CC(n2nnc(-c3ccc(C)c(NC(=O)c4cnn5ccc(N6CCN(CC(F)F)CC6)cc45)c3)n2)C1` [Example 73, methyl 3-(5-(3-(5-(4-(2,2-difluoroethyl)piperazin-1-yl)pyrazolo[1,5-a]pyridine-3-carboxamido)-4-methylphenyl)-2H-tetrazol-2-yl)azetidine-1-carboxylate], 46.6 nM; under `CCn1nnc(-c2cc(NC(=O)c3cnn4ccc(-c5c(C)nn(CC(C)(C)O)c5C)cc34)c(C)cc2F)n1` [Example 246, N-(5-(2-ethyl-2H-tetrazol-5-yl)-4-fluoro-2-methylphenyl)-5-(1-(2-hydroxy-2-methylpropyl)-3,5-dimethyl-1H-pyrazol-4-yl)pyrazolo[1,5-a]pyridine-3-carboxamide], 0.7 nM. Under `COC(=O)N1CC(n2nnc(-c3ccc(C)c(NC(=O)c4cnn5ccc(N6CCC(F)(F)C6)cc45)c3)n2)C1` [Example 67, methyl 3-(5-(3-(5-(3,3-difluoropyrrolidin-1-yl)pyrazolo[1,5-a]pyridine-3-carboxamido)-4-methylphenyl)-2H-tetrazol-2-yl)azetidine-1-carboxylate] stands 22.7 nM; under `Cc1cc(C2CC2)c(-c2nnn(C3CC(F)(F)C3)n2)cc1NC(=O)c1cnn2ccc(N3CCOCC3)cc12` [Example 166, N-(4-cyclopropyl-5-(2-(3,3-difluorocyclobutyl)-2H-tetrazol-5-yl)-2-methylphenyl)-5-morpholinopyrazolo[1,5-a]pyridine-3-carboxamide], 37.7 nM.

`COC(=O)N1CC(c2cnn(-c3ccc(C)c(NC(=O)c4cnn5ccc(N6CCN(C7COC7)CC6)cc45)c3)n2)C1` [Example 83, methyl 3-(2-(4-methyl-3-(5-(4-(oxetan-3-yl)piperazin-1-yl)pyrazolo[1,5-a]pyridine-3-carboxamido)phenyl)-2H-1,2,3-triazol-4-yl)azetidine-1-carboxylate] registered a 50% inhibitory concentration (IC50) of 50.4 nM. For the molecule `O=C(Nc1cc(-c2nnn(CC34COC(C3)C4)n2)ccc1Cl)c1cnn2ccccc12` [Example 18, N-(5-(2-((2-oxabicyclo[2.1.1]hexan-4-yl)methyl)-2H-tetrazol-5-yl)-2-chlorophenyl)pyrazolo[1,5-a]pyridine-3-carboxamide], 29.6 nM corresponded to half-maximal inhibition (IC50).

`Cc1nn([C@@H](C)[C@H](C)O)cc1-c1ccn2ncc(C(=O)Nc3cc(-c4nnn(C5CC5)n4)c(F)cc3Cl)c2c1` (single isomer, unassigned) [Example 288, N-(2-chloro-5-(2-cyclopropyl-2H-tetrazol-5-yl)-4-fluorophenyl)-5-(1-((2S,3S)-3-hydroxybutan-2-yl)-3-methyl-1H-pyrazol-4-yl)pyrazolo[1,5-a]pyridine-3-carboxamide or N-(2-chloro-5-(2-cyclopropyl-2H-tetrazol-5-yl)-4-fluorophenyl)-5-(1-((2R,3R)-3-hydroxybutan-2-yl)-3-methyl-1H-pyrazol-4-yl)pyrazolo[1,5-a]pyridine-3-carboxamide] gave a 50% inhibitory concentration (IC50) of 0.4 nM. As to `COC[C@H](O)Cn1cc(-c2ccn3ncc(C(=O)Nc4cc(-c5nnn(C6CC6)n5)c(F)cc4Cl)c3c2)c(C)n1` [Example 279, (R)—N-(2-chloro-5-(2-cyclopropyl-2H-tetrazol-5-yl)-4-fluorophenyl)-5-(1-(2-hydroxy-3-methoxypropyl)-3-methyl-1H-pyrazol-4-yl)pyrazolo[1,5-a]pyridine-3-carboxamide], the half-inhibitory concentration (IC50) amounted to 0.6 nM. As for `Cc1cc(F)c(-c2nnn(C3CC3)n2)cc1NC(=O)c1cnn2cc(F)c(-c3cn(CC(C)(C)O)nc3C)cc12` [Example 247, N-(5-(2-cyclopropyl-2H-tetrazol-5-yl)-4-fluoro-2-methylphenyl)-6-fluoro-5-(1-(2-hydroxy-2-methylpropyl)-3-methyl-1H-pyrazol-4-yl)pyrazolo[1,5-a]pyridine-3-carboxamide], the IC50 was 0.5 nM. Under `COC(=O)N1CC(n2nnc(-c3cc(NC(=O)c4cnn5cc(N6CCOCC6)ccc45)c(C)cc3F)n2)C1` [Example 224, methyl 3-(5-(2-fluoro-4-methyl-5-(6-morpholinopyrazolo[1,5-a]pyridine-3-carboxamido)phenyl)-2H-tetrazol-2-yl)azetidine-1-carboxylate] stands 27 nM; under `Cc1ccc(-n2nnc([C@H]3CC3(F)F)n2)cc1NC(=O)c1cnn2ccc(-c3cnn(CCO)c3)cc12` (single isomer, unassigned) [Example 211, (R)-N-(5-(5-(2,2-difluorocyclopropyl)-2H-tetrazol-2-yl)-2-methylphenyl)-5-(1-(2-hydroxyethyl)-1H-pyrazol-4-yl)pyrazolo[1,5-a]pyridine-3-carboxamide or (S)-N-(5-(5-(2,2-difluorocyclopropyl)-2H-tetrazol-2-yl)-2-methylphenyl)-5-(1-(2-hydroxyethyl)-1H-pyrazol-4-yl)pyrazolo[1,5-a]pyridine-3-carboxamide], 2.6 nM; under `COC(=O)N1CC(n2nnc(-c3ccc(C)c(NC(=O)c4cnn5cc(N6CCOCC6)ccc45)c3)n2)C1` [Example 159, methyl 3-(5-(4-methyl-3-(6-morpholinopyrazolo[1,5-a]pyridine-3-carboxamido)phenyl)-2H-tetrazol-2-yl)azetidine-1-carboxylate], 20.1 nM. The molecule `Cc1ccc(-c2nnn(C)n2)cc1NC(=O)c1cnn2ccc(-c3cn(CCO)nc3C)cc12` [Example 228, 5-(1-(2-hydroxyethyl)-3-methyl-1H-pyrazol-4-yl)-N-(2-methyl-5-(2-methyl-2H-tetrazol-5-yl)phenyl)pyrazolo[1,5-a]pyridine-3-carboxamide] came in with a half-maximal inhibitory concentration (IC50) of 1.5 nM. Take `CCOC(=O)N1CC(n2nnc(-c3ccc(C)c(NC(=O)c4cnn5ccc(N6CCOCC6)cc45)c3)n2)C1` [Example 77, ethyl 3-(5-(4-methyl-3-(5-morpholinopyrazolo[1,5-a]pyridine-3-carboxamido)phenyl)-2H-tetrazol-2-yl)azetidine-1-carboxylate]: the half-maximal inhibitory concentration (IC50) came to 60.7 nM. The same measure for `O=C(Nc1cc(-c2nnn(CC3CC3(F)F)n2)ccc1Cl)c1cnn2ccccc12` (stereo not shown) [Example 16, N-(2-chloro-5-(2-((2,2-difluorocyclopropyl)methyl)-2H-tetrazol-5-yl)phenyl)pyrazolo[1,5-a]pyridine-3-carboxamide]: 2.3 nM; for `COC(=O)N1CC(n2nnc(-c3ccc(C)c(NC(=O)c4cnn5ccc(NCCO)cc45)c3)n2)C1` [Example 142, Methyl 3-(5-(3-(5-((2-hydroxyethyl)amino)pyrazolo[1,5-a]pyridine-3-carboxamido)-4-methylphenyl)-2H-tetrazol-2-yl)azetidine-1-carboxylate]: 17.1 nM. Molecule `Cc1ccc(-c2nnn(C3CC3)n2)cc1NC(=O)c1cnn2ccc(-c3cn([C@H](C)[C@H](C)O)nc3C)cc12` (single isomer, unassigned) [Example 269, N-(5-(2-cyclopropyl-2H-tetrazol-5-yl)-2-methylphenyl)-5-(1-((2R,3S)-3-hydroxybutan-2-yl)-3-methyl-1H-pyrazol-4-yl)pyrazolo[1,5-a]pyridine-3-carboxamide or N-(5-(2-cyclopropyl-2H-tetrazol-5-yl)-2-methylphenyl)-5-(1-((2S,3R)-3-hydroxybutan-2-yl)-3-methyl-1H-pyrazol-4-yl)pyrazolo[1,5-a]pyridine-3-carboxamide] showed a 50% inhibitory concentration (IC50) of 0.3 nM. Molecule `O=C(Nc1cc(-c2nnn(C3CC(F)(F)C3)n2)c(F)cc1Cl)c1cnn2ccc(N3CCOCC3)cc12` [Example 63, N-(2-chloro-5-(2-(3,3-difluorocyclobutyl)-2H-tetrazol-5-yl)-4-fluorophenyl)-5-morpholinopyrazolo[1,5-a]pyridine-3-carboxamide] registered a half-inhibitory concentration (IC50) of 10.5 nM. `COCC(C)Nc1ccn2ncc(C(=O)Nc3cc(-c4nnn(C5CN(C(=O)OC)C5)n4)ccc3C)c2c1` (stereo in doubt) [Example 128, methyl (S)-3-(5-(3-(5-((1-methoxypropan-2-yl)amino)pyrazolo[1,5-a]pyridine-3-carboxamido)-4-methylphenyl)-2H-tetrazol-2-yl)azetidine-1-carboxylate] gave a half-maximal inhibitory concentration (IC50) of 47.4 nM.

Consider `COCCNc1ccn2ncc(C(=O)Nc3cc(-n4ncc(C5CN(C(=O)OC)C5)n4)ccc3Cl)c2c1` [Example 111, methyl 3-(2-(4-chloro-3-(5-((2-methoxyethyl)amino)pyrazolo[1,5-a]pyridine-3-carboxamido)phenyl)-2H-1,2,3-triazol-4-yl)azetidine-1-carboxylate], for which half-maximal inhibition (IC50) was put at 11.8 nM.

In turn, `Cc1cc(C)c(-c2nnn(C3CC(F)(F)C3)n2)cc1NC(=O)c1cnn2ccc(N3CCOCC3)cc12` [Example 156, N-(5-(2-(3,3-difluorocyclobutyl)-2H-tetrazol-5-yl)-2,4-dimethylphenyl)-5-morpholinopyrazolo[1,5-a]pyridine-3-carboxamide] yielded an IC50 of 22.1 nM.
